These results are taken from article PMC10074041 (RSC Advances, 2023).

The target in the assay is α-glucosidase. Description: pNPG hydrolysis, absorbance […] nm. The conditions noted are these: 1.25 mM pNPG, phosphate pH 6.8, 35 min preincubation at room temperature. The assay is classed as biochemical.

Values after ≈ are worked out from the molar mass of the structure shown.

In the case of `CC(=O)NC(CC(=O)O)c1ccccc1O` (stereo not shown) [L1, 3-Acetylamino-3(2-hydroxyphenyl) propanoic acid], the “IC50 (μg mL^-1) / In vitro α-glucosidase inhibitory activity” value was 40.96 ± 0.96 µg/mL (≈ 183 µM).
